Values joined by “and” are separate entries in the source; they are usually repeats but may differ in a detail not shown here. Equal values may be shown once. Inconclusive results and toxic doses are left out.

For the assay, the system named is L1210 leukemia ip in BDF1 mice, survival T/C. The assay can be described thus: NCI In Vivo Anticancer Drug Screen. Data for tumor model L1210 Leukemia (intraperitoneal) in B6D2F1 (BDF1) mice. Particulars: endpoint: mean survival time, higher = longer survival. Put shortly: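 Mice bearing the transplanted tumor received compound or vehicle. Survival of the treated group was divided by that of the vehicle-treated control group to give the ratio.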

Where [1] appears, read: dose: 100.0 mg/kg/injection, schedule: Q01DX009 (ip), vehicle: Klucel (hydroxypropylcellulose) (HPC).
Where [2] appears, read: dose: 200.0 mg/kg/injection, schedule: Q01DX009 (ip), vehicle: Klucel (hydroxypropylcellulose) (HPC).
Where [3] appears, read: dose: 400.0 mg/kg/injection, schedule: Q01DX009 (ip), vehicle: Klucel (hydroxypropylcellulose) (HPC).
Where [4] appears, read: dose: 100.0 mg/kg/injection, schedule: Q04DX003 (ip), vehicle: Klucel (hydroxypropylcellulose) (HPC).
Where [5] appears, read: dose: 200.0 mg/kg/injection, schedule: Q04DX003 (ip), vehicle: Klucel (hydroxypropylcellulose) (HPC).
Where [6] appears, read: dose: 400.0 mg/kg/injection, schedule: Q04DX003 (ip), vehicle: Klucel (hydroxypropylcellulose) (HPC).
Setting [7] is: dose: 100.0 mg/kg/injection, schedule: Q01DX001 (ip), vehicle: carboxymethylcellulose (CMC).
[8] abbreviates: dose: 200.0 mg/kg/injection, schedule: Q01DX001 (ip), vehicle: carboxymethylcellulose (CMC).
[9] abbreviates: dose: 400.0 mg/kg/injection, schedule: Q01DX001 (ip), vehicle: carboxymethylcellulose (CMC).
[10] abbreviates: dose: 100.0 mg/kg/injection, schedule: Q04DX003 (ip), vehicle: saline.
Setting [11] is: dose: 100.0 mg/kg/injection, schedule: Q01DX009 (ip), vehicle: saline.
[12] abbreviates: dose: 200.0 mg/kg/injection, schedule: Q01DX009 (ip), vehicle: saline.
The mark [13] stands for this setting: dose: 200.0 mg/kg/injection, schedule: Q04DX003 (ip), vehicle: saline.
Where [14] appears, read: dose: 400.0 mg/kg/injection, schedule: Q01DX009 (ip), vehicle: saline.
The mark [15] stands for this setting: dose: 400.0 mg/kg/injection, schedule: Q04DX003 (ip), vehicle: saline.
[16] abbreviates: dose: 100.0 mg/kg/injection, schedule: Q04DX003 (ip), vehicle: saline with Tween-80.
[17] abbreviates: dose: 200.0 mg/kg/injection, schedule: Q04DX003 (ip), vehicle: saline with Tween-80.
[18] abbreviates: dose: 400.0 mg/kg/injection, schedule: Q04DX003 (ip), vehicle: saline with Tween-80.

For `CSc1ccc(NC(=O)C(Br)C(Br)c2ccccc2)cc1` (centres undefined), the T/C is 103 % of control under setting [1], 105 % of control under setting [2] and 102 % of control under setting [3].
`c1ccc2c(c1)OB(C1CCCC1)O2`: the T/C reads like this: under setting [4], 95 % of control; under setting [5], 93 % of control; under setting [6], 100 % of control.
As for `CCSC1=C(N2CC2)C(=O)C(SCC)=C(N2CC2)C1=O`, the T/C is, setting by setting: (dose: 150.0 mg/kg/injection, schedule: Q04DX003 (ip), vehicle: saline) 96 % of control; (dose: 225.0 mg/kg/injection, schedule: Q04DX003 (ip), vehicle: saline) 96 % of control.
Consider `O=C(CCC(=O)c1ccc(Br)cc1)c1ccc(Br)cc1`, for which the T/C was 92 % of control (dose: 50.0 mg/kg/injection, schedule: Q01DX001 (ip), vehicle: carboxymethylcellulose (CMC)); 97 % of control under setting [7]; 103 % of control under setting [8]; 90 % of control under setting [9].
`COc1cc2ccc3ccncc3c2cc1OC`: the T/C is, setting by setting: (dose: 12.5 mg/kg/injection, schedule: Q01DX009 (ip), vehicle: saline) 104 % of control; (dose: 25.0 mg/kg/injection, schedule: Q01DX009 (ip), vehicle: saline) 106 % of control and 115 % of control; (dose: 50.0 mg/kg/injection, schedule: Q01DX009 (ip), vehicle: saline) 97 % of control and 111 % of control; under setting [10], 86 % of control.
For the molecule `CC1(C)OC2COC(CN(N=O)C(N)=O)C2O1` (centres undefined), the T/C (dose: 75.0 mg/kg/injection, schedule: Q01DX001 (ip), vehicle: saline) was 122 % of control.
As to `Cc1ccc(NC(=O)N(CCCl)N=O)cc1NC(=O)N(CCCl)N=O`, the T/C by setting is: (dose: 177.0 mg/kg/injection, schedule: Q01DX001 (ip), vehicle: carboxymethylcellulose (CMC)) 154 % of control; (dose: 266.0 mg/kg/injection, schedule: Q01DX001 (ip), vehicle: carboxymethylcellulose (CMC)) 152 % of control; (dose: 266.0 mg/kg/injection, schedule: Q01DX009 (ip), vehicle: carboxymethylcellulose (CMC)) 152 % of control; under setting [9], 157 % of control; (dose: 400.0 mg/kg/injection, schedule: Q01DX009 (ip), vehicle: carboxymethylcellulose (CMC)) 195 % of control; (dose: 600.0 mg/kg/injection, schedule: Q01DX001 (ip), vehicle: carboxymethylcellulose (CMC)) 158 % of control. For the same molecule, the T/C (dose: 600.0 mg/kg/injection, schedule: Q01DX009 (ip), vehicle: carboxymethylcellulose (CMC)) is 202 % of control.
In the case of `CC(=O)Oc1c2ccsc2cc2ccsc12`, the T/C (dose: 100.0 mg/kg/injection, schedule: Q01DX001 (ip), vehicle: saline with Tween-80) was 100 % of control; the T/C (dose: 200.0 mg/kg/injection, schedule: Q01DX001 (ip), vehicle: saline with Tween-80) was 96 % of control; the T/C (dose: 400.0 mg/kg/injection, schedule: Q01DX001 (ip), vehicle: saline with Tween-80) was 96 % of control.
Regarding `O=C(CCCC(=O)N/N=C/c1ccc(C(=O)O)cc1)N/N=C\c1ccc(C(=O)O)cc1`, the T/C by setting is: (dose: 50.0 mg/kg/injection, schedule: Q01DX001 (ip), vehicle: saline) 104 % of control; (dose: 100.0 mg/kg/injection, schedule: Q01DX001 (ip), vehicle: saline) 102 % of control; (dose: 200.0 mg/kg/injection, schedule: Q01DX001 (ip), vehicle: saline) 98 % of control; (dose: 400.0 mg/kg/injection, schedule: Q01DX001 (ip), vehicle: saline) 98 % of control.
Consider `CCCCOB(OCCCC)Oc1c(C(C)(C)C)cccc1C(C)(C)C`, for which the T/C was 106 % of control under setting [11]; 89 % of control under setting [10]; 93 % of control under setting [12]; 92 % of control under setting [13]; 108 % of control under setting [14]; 91 % of control under setting [15].
Turning to `O=C(/C(=C\c1ccccc1)N1CCOCC1)c1ccc(Cl)cc1`, the T/C under setting [16] is 92 % of control.
For the molecule `CC(NC(=O)C(C)(C)C)c1ccc2c(c1)OCCO2` (centres undefined), the T/C runs as follows: (dose: 100.0 mg/kg/injection, schedule: Q04DX002 (ip), vehicle: saline with Tween-80) 106 % of control; (dose: 200.0 mg/kg/injection, schedule: Q04DX002 (ip), vehicle: saline with Tween-80) 95 % of control; (dose: 400.0 mg/kg/injection, schedule: Q04DX002 (ip), vehicle: saline with Tween-80) 95 % of control.
Turning to `O=S(=O)(Nc1ccccc1F)c1ccc2ccccc2c1`, the T/C under setting [11] was 93 % of control, the T/C under setting [12] is 93 % of control and the T/C under setting [14] was 98 % of control.
With `COC(=O)c1cc(=O)c2c(Cl)cccc2[nH]1`, the T/C under setting [10] is 96 % of control, the T/C under setting [13] is 110 % of control and the T/C under setting [15] was 95 % of control.
`CC(=O)Nc1c(Cl)c(Cl)c2c(c1Cl)Cc1cc(F)ccc1-2`: the T/C was 97 % of control (dose: 62.5 mg/kg/injection, schedule: Q01DX Z (ip), vehicle: saline); 101 % of control under setting [16]; 95 % of control (dose: 125.0 mg/kg/injection, schedule: Q01DX Z (ip), vehicle: saline); 93 % of control under setting [17]; 101 % of control (dose: 250.0 mg/kg/injection, schedule: Q01DX Z (ip), vehicle: saline); 95 % of control under setting [18]. Besides, the T/C was 95 % of control (dose: 500.0 mg/kg/injection, schedule: Q01DX Z (ip), vehicle: saline); 96 % of control (dose: 650.0 mg/kg/injection, schedule: Q01DX Z (ip), vehicle: saline); 102 % of control (dose: 800.0 mg/kg/injection, schedule: Q01DX Z (ip), vehicle: saline).
Regarding `COC(=O)NC1CC=CCC1I` (centres undefined), the T/C is, setting by setting: under setting [16], 100 % of control; under setting [17], 102 % of control; under setting [18], 102 % of control.
In the case of `COc1cc(C(C)=O)ccc1OCc1ccccc1`, the T/C is 98 % of control and 107 % of control (dose: 25.0 mg/kg/injection, schedule: Q01DX009 (ip), vehicle: saline with Tween-80); 96 % of control and 103 % of control (dose: 50.0 mg/kg/injection, schedule: Q01DX009 (ip), vehicle: saline with Tween-80); 96 % of control and 101 % of control (dose: 100.0 mg/kg/injection, schedule: Q01DX009 (ip), vehicle: saline with Tween-80); 93 % of control and 112 % of control (dose: 200.0 mg/kg/injection, schedule: Q01DX009 (ip), vehicle: saline with Tween-80).
With `OCC12COC(c3ccccc3)N1C(c1ccccc1)OC2` (centres undefined), the T/C is 102 % of control under setting [1]; 102 % of control under setting [4]; 102 % of control under setting [2]; 102 % of control under setting [5]; 97 % of control under setting [3]; 100 % of control under setting [6].
Regarding `Cc1ccc(S(=O)(=O)N2CC(O)C=Cc3ccccc32)cc1` (centres undefined), the T/C runs as follows: under setting [7], 107 % of control; under setting [8], 105 % of control; under setting [9], 110 % of control.
As for `CC(C)c1cccc(C(C)C)c1OC(=O)Nc1ccccc1`, the T/C (dose: 100.0 mg/kg/injection, schedule: Q01DX001 (ip), vehicle: Klucel (hydroxypropylcellulose) (HPC)) was 101 % of control; the T/C under setting [1] is 97 % of control; the T/C (dose: 100.0 mg/kg/injection, schedule: Q04DX002 (ip), vehicle: Klucel (hydroxypropylcellulose) (HPC)) is 95 % of control and 102 % of control; the T/C under setting [4] was 116 % of control; the T/C (dose: 200.0 mg/kg/injection, schedule: Q01DX001 (ip), vehicle: Klucel (hydroxypropylcellulose) (HPC)) is 88 % of control; the T/C under setting [2] is 98 % of control and 87 % of control. In addition, the T/C reads like this: (dose: 200.0 mg/kg/injection, schedule: Q04DX002 (ip), vehicle: Klucel (hydroxypropylcellulose) (HPC)) 97 % of control and 108 % of control; under setting [5], 100 % of control; (dose: 400.0 mg/kg/injection, schedule: Q01DX001 (ip), vehicle: Klucel (hydroxypropylcellulose) (HPC)) 87 % of control; under setting [3], 103 % of control and 113 % of control; (dose: 400.0 mg/kg/injection, schedule: Q04DX002 (ip), vehicle: Klucel (hydroxypropylcellulose) (HPC)) 102 % of control and 90 % of control; under setting [6], 108 % of control.

The values are drawn from PubChem BioAssay AID248 (DTP/NCI, 2004).
